Data reported in US8124788B2, “Spirocyclic cyclohexane compounds with analgesic activity” (Gruenenthal GmbH, priority 2006, dated 2012).

Molecular target: T1, human μ opiate receptor (Homo sapiens, UniProt P35372)
T1 construct: purchased PerkinElmer Life Sciences, Zaventem, Belgium RB-HOM; host or cells: CHO-K1 cells (recombinant expression)
Test: Affinity for the human μ opiate receptor ([3H]-naloxone displacement, CHO-K1 membrane preparation, SPA)
Format: binding
Conditions: compounds prepared via automated synthesis; single measurements at a test concentration of 1 μM
Outline: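 CHO-K1 membranes expressing human μ receptor (15-40 μg protein/250 μl) were incubated 90 min at room temperature with 1 nmol/l [³H]-naloxone and WGA-SPA beads in 50 mmol/l Tris-HCl with 0.06% BSA; 100 μmol/l naloxone defined nonspecific binding. Percent displacement measured at 1 μmol/l; IC50 converted to Ki via Cheng-Prusoff.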

T1 sequence (P35372 whole entry): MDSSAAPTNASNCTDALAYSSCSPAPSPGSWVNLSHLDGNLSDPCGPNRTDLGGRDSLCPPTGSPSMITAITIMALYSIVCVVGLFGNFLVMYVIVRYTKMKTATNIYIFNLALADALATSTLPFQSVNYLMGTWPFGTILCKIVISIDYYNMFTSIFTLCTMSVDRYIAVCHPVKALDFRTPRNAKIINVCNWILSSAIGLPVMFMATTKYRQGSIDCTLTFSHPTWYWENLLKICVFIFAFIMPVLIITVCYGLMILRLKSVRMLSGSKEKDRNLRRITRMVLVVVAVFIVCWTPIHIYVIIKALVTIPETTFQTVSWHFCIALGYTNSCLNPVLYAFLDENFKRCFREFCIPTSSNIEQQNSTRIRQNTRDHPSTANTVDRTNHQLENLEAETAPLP

Compound	μ opioid receptor [1 μmol], % inhibition
CN(C)C(c1ccc(F)cc1)C1CCC2(CC1)c1[nH]c3ccccc3c1CCN2C(=O)Cc1ccc(F)cc1 (centres unmarked) [Compound 110, 2-[(4-fluorophenyl)acetyl]-{1,1-[3-(dimethylamino-(4-fluorophenyl)methyl)-pentamethylene]-3,4-dihydro-1H-2,9-diazafluorene}]	14%
CCCCC(CC)C(=O)N1CCc2c([nH]c3ccccc23)C12CCC(C(c1cccc(F)c1)N(C)C)CC2 (centres unmarked) [Compound 111, 2-(2-ethylhexanoyl)-{1,1-[3-(dimethylamino-(3-fluorophenyl)methyl)-pentamethylene]-3,4-dihydro-1H-2,9-diazafluorene}]	13%
CCC(=O)N1CCc2c([nH]c3ccccc23)C12CCC(C(c1cccc(F)c1)N(C)C)CC2 (centres unmarked) [Compound 113, 2-propionyl-{1,1-[3-(dimethylamino-(3-fluorophenyl)methyl)-pentamethylene]-3,4-dihydro-1H-2,9-diazafluorene}]	13%
CN(C)C(c1cccc(F)c1)C1CCC2(CC1)c1[nH]c3ccccc3c1CCN2C(=O)Cc1ccc(F)cc1 (centres unmarked) [Compound 116, 2-[(4-fluorophenyl)acetyl]-{1,1-[3-(dimethylamino-(3-fluorophenyl)methyl)-pentamethylene]-3,4-dihydro-1H-2,9-diazafluorene}]	20%
CCCCC(CC)C(=O)N1CCc2c([nH]c3ccccc23)C12CCC(C(c1ccc(Cl)cc1)N(C)C)CC2 (centres unmarked) [Compound 118, 2-(2-ethylhexanoyl)-{1,1-[3-(dimethylamino-(4-chlorophenyl)methyl)-pentamethylene]-3,4-dihydro-1H-2,9-diazafluorene}]	35%
CC(C)C(=O)N1CCc2c([nH]c3ccccc23)C12CCC(C(c1ccc(Cl)cc1)N(C)C)CC2 (centres unmarked) [Compound 119, 2-isobutyryl-{1,1-[3-(dimethylamino-(4-chlorophenyl)methyl)-pentamethylene]-3,4-dihydro-1H-2,9-diazafluorene}]	40%
CCC(=O)N1CCc2c([nH]c3ccccc23)C12CCC(C(c1ccc(Cl)cc1)N(C)C)CC2 (centres unmarked) [Compound 120, 2-propionyl-{1,1-[3-(dimethylamino-(4-chlorophenyl)methyl)-pentamethylene]-3,4-dihydro-1H-2,9-diazafluorene}]	29%
CN(C)C(c1ccc(Cl)cc1)C1CCC2(CC1)c1[nH]c3ccccc3c1CCN2C(=O)Cc1ccc(F)cc1 (centres unmarked) [Compound 123, 2-[(4-fluorophenyl)acetyl]-{1,1-[3-(dimethylamino-(4-chlorophenyl)-methyl)-pentamethylene]-3,4-dihydro-1H-2,9-diazafluorene}]	20%
CN(C)C(c1ccccc1)C1CCC2(CC1)c1[nH]c3ccccc3c1CCN2C(=O)C1CCCC1 (centres unmarked) [Compound 125, 2-cyclopentylcarbonyl-{1,1-[3-(dimethylamino-phenylmethyl)-pentamethylene]-3,4-dihydro-1H-2,9-diazafluorene}]	29%
COc1cccc(CC(=O)N2CCc3c([nH]c4ccccc34)C23CCC(C(c2cccc(F)c2)N(C)C)CC3)c1 (centres unmarked) [Compound 126, 2-[(3-methoxyphenyl)acetyl]-{1,1-[3-(dimethylamino-(3-fluorophenyl)methyl)-pentamethylene]-3,4-dihydro-1H-2,9-diazafluorene}]	50%
CC(Oc1ccccc1)C(=O)N1CCc2c([nH]c3ccccc23)C12CCC(C(c1cccc(F)c1)N(C)C)CC2 (centres unmarked) [Compound 127, 2-(2-phenoxypropanoyl)-{1,1-[3-(dimethylamino-(3-fluorophenyl)methyl)-pentamethylene]-3,4-dihydro-1H-2,9-diazafluorene}]	55%
Cc1ccc2sc(C(=O)N3CCc4c([nH]c5ccccc45)C34CCC(C(c3cccc(F)c3)N(C)C)CC4)cc2c1 (centres unmarked) [Compound 128, 2-[5-methylbenzothien-2-ylcarbonyl]-{1,1-[3-(dimethylamino-(3-fluorophenyl)methyl)-pentamethylene]-3,4-dihydro-1H-2,9-diazafluorene}]	16%
CC(C)CC(=O)N1CCc2c([nH]c3ccccc23)C12CCC(C(c1cccc(F)c1)N(C)C)CC2 (centres unmarked) [Compound 129, 1-{1,1-[3-(dimethylamino-(3-fluorophenyl)methyl) -pentamethylene]-3,4-dihydro-1H-2,9-diazafluoren-2-yl}-3-methylbutan-1-one]	74%
CC(CC(=O)N1CCc2c([nH]c3ccccc23)C12CCC(C(c1cccc(F)c1)N(C)C)CC2)c1ccccc1 (centres unmarked) [Compound 130, 1-{1,1-[3-(dimethylamino-(3-fluorophenyl)methyl) -pentamethylene]-3,4-dihydro-1H-2,9-diazafluoren-2-yl}-3-phenylbutan-1-one]	49%
CN(C)C(c1ccc(Cl)cc1)C1CCC2(CC1)c1[nH]c3ccccc3c1CCN2C(=O)Cc1cccc(Br)c1 (centres unmarked) [Compound 132, 2-[(3-bromophenyl)acetyl]-{1,1-[3-(dimethylamino-(4-chlorophenyl)-methyl)-pentamethylene]-3,4-dihydro-1H-2,9-diazafluorene}]	65%
CC(Oc1ccccc1)C(=O)N1CCc2c([nH]c3ccccc23)C12CCC(C(c1ccc(Cl)cc1)N(C)C)CC2 (centres unmarked) [Compound 133, 2-(2-phenoxypropanoyl)-{1,1-[3-(dimethylamino-(4-chlorophenyl)methyl)-pentamethylene]-3,4-dihydro-1H-2,9-diazafluorene}]	71%
CC(C)CC(=O)N1CCc2c([nH]c3ccccc23)C12CCC(C(c1ccc(Cl)cc1)N(C)C)CC2 (centres unmarked) [Compound 134, 1-{1,1-[3-(dimethylamino-(4-chlorophenyl)methyl) -pentamethylene]-3,4-dihydro-1H-2,9-diazafluoren-2-yl}-3-methylbutan-1-one]	47%
COc1cccc(CC(=O)N2CCc3c([nH]c4ccccc34)C23CCC(C(c2ccccc2)N(C)C)CC3)c1 (centres unmarked) [Compound 136, 2-[(3-methoxyphenyl)acetyl]-{1,1-[3-(dimethylamino-phenylmethyl)-pentamethylene]-3,4-dihydro-1H-2,9-diazafluorene}]	75%
CC(Oc1ccccc1)C(=O)N1CCc2c([nH]c3ccccc23)C12CCC(C(c1ccccc1)N(C)C)CC2 (centres unmarked) [Compound 137, 2-(2-phenoxypropanoyl)-{1,1-[3-(dimethylamino-phenylmethyl)-pentamethylene]-3,4-dihydro-1H-2,9-diazafluorene}]	68%
CC(C)CC(=O)N1CCc2c([nH]c3ccccc23)C12CCC(C(c1ccccc1)N(C)C)CC2 (centres unmarked) [Compound 138, 1-{1,1-[3-(dimethylamino-phenylmethyl)-pentamethylene]-3,4-dihydro-1H-2,9-diazafluoren-2-yl}-3-methylbutan-1-one]	58%
CCC(CC)C(=O)N1CCc2c([nH]c3ccccc23)C12CCC(C(c1ccc(F)cc1)N(C)C)CC2 (centres unmarked) [Compound 139, 1-{1,1-[3-(dimethylamino-(4-fluorophenyl)methyl) -pentamethylene]-3,4-dihydro-1H-2,9-diazafluoren-2-yl}-2-ethylbutan-1-one]	25%
COc1cccc(CC(=O)N2CCc3c([nH]c4ccccc34)C23CCC(C(c2ccc(F)cc2)N(C)C)CC3)c1 (centres unmarked) [Compound 140, 2-[(3-methoxyphenyl)acetyl]-{1,1-[3-(dimethylamino-(4-fluorophenyl)methyl)-pentamethylene]-3,4-dihydro-1H-2,9-diazafluorene}]	47%
CC(Oc1ccccc1)C(=O)N1CCc2c([nH]c3ccccc23)C12CCC(C(c1ccc(F)cc1)N(C)C)CC2 (centres unmarked) [Compound 141, 2-(2-phenoxypropanoyl)-{1,1-[3-(dimethylamino-(4-fluorophenyl)methyl)-pentamethylene]-3,4-dihydro-1H-2,9-diazafluorene}]	47%
CC(CC(=O)N1CCc2c([nH]c3ccccc23)C12CCC(C(c1ccc(F)cc1)N(C)C)CC2)c1ccccc1 (centres unmarked) [Compound 142, 1-{1,1-[3-(dimethylamino-(4-fluorophenyl)methyl) -pentamethylene]-3,4-dihydro-1H-2,9-diazafluoren-2-yl}-3-phenylbutan-1-one]	30%

Same assay, conditions: compounds prepared via automated synthesis; single measurements at a test concentration of 1 μM; 1 µM

Compound	μ opioid receptor [1 μmol], % inhibition
CN(C)C(c1ccc(Cl)cc1)C1CCC2(CC1)c1[nH]c3ccccc3c1CCN2C(=O)CCc1ccccc1 (centres unmarked) [Compound 131, 2-(3-phenylpropanoyl)-{1,1-[3-(dimethylamino-(4-chlorophenyl)methyl)-pentamethylene]-3,4-dihydro-1H-2,9-diazafluorene}]	51%
CN(C)C(c1ccc(Cl)cc1)C1CCC2(CC1)c1[nH]c3ccccc3c1CCN2C(=O)CCc1ccccc1 (centres unmarked) [Compound 135, (3-phenylpropanoyl)-1-{1,1-[3-(dimethylamino-(4-chlorophenyl)methyl)-pentamethylene]-3,4-dihydro-1H-2,9-diazafluorene}]	38%
